# Experimental data published in the supplement of paper PMC10307832.
# Assays:
# Assay in all cases: relative viability (nuclei count vs DMSO), 5 days (fraction); higher = more cells survive
# [1] = compound: Cc1ccc(C(=O)Nc2ccc(CN3CCN(C)CC3)c(C(F)(F)F)c2)cc1C#Cc1cnc2cccnn12 [Ponatinib] + CC1(C)CCC(c2ccc(Cl)cc2)=C(CN2CCN(c3ccc(C(=O)NS(=O)(=O)c4ccc(N[C@H](CCN5CCOCC5)CSc5ccccc5)c(S(=O)(=O)C(F)(F)F)c4)cc3)CC2)C1 [Navitoclax] (partner 0.5 µM)
# How it was run: (§1)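 Medians of duplicate plates are given as relative viability. That measure is the nuclei count in treated wells divided by the count in vehicle wells. Counts were taken on 4× images of lung cancer cell lines in 1536-well plates, 5 days after pin-tool dosing the day after seeding with one drug alone or a fixed anchor-drug dose plus five library-drug doses (not always all listed) in √10 steps.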
# [2] = compound: Cc1ccc(C(=O)Nc2ccc(CN3CCN(C)CC3)c(C(F)(F)F)c2)cc1C#Cc1cnc2cccnn12 [Ponatinib] + N=C(N)NC(=N)NCCc1ccccc1 [Phenformin] (partner 250 µM)
# How it was run: as §1
# [3] = compound: Cc1ccc(Nc2nccc(N(C)c3ccc4c(C)n(C)nc4c3)n2)cc1S(N)(=O)=O [Pazopanib] + CCNC(=O)c1noc(-c2cc(C(C)C)c(O)cc2O)c1-c1ccc(CN2CCOCC2)cc1 [Luminespib] (partner 0.01 µM)
# How it was run: as §1
# [4] = compound: Cc1ccc(Nc2nccc(N(C)c3ccc4c(C)n(C)nc4c3)n2)cc1S(N)(=O)=O [Pazopanib] + Cc1nc(NC(=O)N2CCC[C@H]2C(N)=O)sc1-c1ccnc(C(C)(C)C(F)(F)F)c1 [Alpelisib] (partner 2 µM)
# How it was run: as §1
Cell Line,relative viability ([1]; first compound 0.002 µM),relative viability ([1]; first compound 0.006325 µM),relative viability ([1]; first compound 0.06325 µM),relative viability ([1]; first compound 0.2 µM),relative viability ([2]; first compound 0.002 µM),relative viability ([2]; first compound 0.006325 µM),relative viability ([2]; first compound 0.06325 µM),relative viability ([2]; first compound 0.2 µM),relative viability ([3]; first compound 0.01 µM),relative viability ([3]; first compound 0.03162 µM),relative viability ([3]; first compound 0.1 µM),relative viability ([3]; first compound 0.3162 µM),relative viability ([3]; first compound 1 µM),relative viability ([4]; first compound 0.01 µM),relative viability ([4]; first compound 0.03162 µM),relative viability ([4]; first compound 0.1 µM),relative viability ([4]; first compound 0.3162 µM),relative viability ([4]; first compound 1 µM)
NCI-H1975,1.18,1.01,1.2,0.915,0.365,0.395,0.439,0.398,0.157,0.326,0.275,0.272,0.331,0.684,0.648,0.608,0.74,0.662
NCI-H1993,0.881,1.07,1.25,0.943,0.57,0.512,0.532,0.508,,0.728,0.885,0.885,0.913,0.67,0.7,0.759,0.703,0.733
NCI-H2009,1.12,1.07,1.13,1.13,0.426,0.432,0.522,0.467,1.04,0.989,0.988,0.955,0.854,1.08,1.19,1.26,1.09,1
NCI-H2023,0.968,0.946,1.1,1,0.397,0.416,0.425,0.315,0.781,0.77,0.652,0.613,0.883,0.58,0.567,0.62,0.57,0.591
NCI-H2085,1.1,1.16,1.28,1.16,0.649,0.708,0.682,0.641,0.461,0.41,0.5,0.434,0.425,0.964,0.974,1.02,0.995,1.05
NCI-H2087,0.825,0.771,0.864,0.995,0.517,0.471,0.493,0.439,0.162,0.174,0.171,0.165,0.159,1.08,1.14,1.22,0.979,1.06
NCI-H2126,0.823,0.871,0.963,0.848,0.509,0.544,0.558,0.543,0.93,0.928,0.903,0.846,0.946,0.65,0.751,0.821,0.811,0.806
NCI-H2170,0.643,0.661,0.684,0.765,0.391,0.365,0.432,0.419,0.675,0.766,0.712,0.532,0.627,0.73,0.794,0.877,0.646,0.787
NCI-H2228,1.18,1.01,1.43,0.811,0.356,0.356,0.342,0.357,0.142,0.135,0.153,0.155,0.177,0.783,0.89,1.02,0.769,0.643
NCI-H2347,0.684,0.834,0.899,0.719,0.34,0.393,0.38,0.34,0.299,0.453,0.898,0.309,0.471,1.06,1.04,1.08,1.06,1.16
NCI-H2405,0.855,0.917,0.844,0.62,0.359,0.44,0.386,0.329,0.728,0.837,0.821,0.815,0.73,0.743,0.787,0.861,1.09,0.838
NCI-H3122,1.04,1.03,1.04,1.01,0.301,0.378,0.384,0.356,0.0969,0.0909,0.106,0.0886,0.0721,0.733,0.734,0.783,0.884,0.736
PC-3 [JPC-3],0.792,0.754,0.902,0.748,0.461,0.502,0.502,0.477,0.784,0.59,0.65,0.69,0.65,0.965,1.04,1.19,0.991,0.956
PC-14,0.927,1,1.14,0.919,0.443,0.619,0.665,0.605,0.155,0.177,0.173,0.177,0.142,0.883,0.996,0.959,0.934,0.935
RERF-LC-KJ,1.09,0.968,1.07,1.06,0.41,0.417,0.482,0.426,1.31,1.36,1.29,1.23,1.23,0.808,0.928,0.906,0.806,0.935
SK-LU-1,0.702,0.792,0.902,0.453,0.445,0.469,0.475,0.328,0.222,0.221,0.175,0.22,0.232,0.977,1.24,1.1,1.05,1.04
SK-MES-1,1.25,1.12,1.3,1.19,0.676,0.65,0.716,0.548,0.846,0.79,0.746,0.913,0.75,0.816,0.872,1.02,0.977,0.836
